Tested on: spontaneously hypertensive rats
Assay: antihypertensive activity in the spontaneously hypertensive rat model
Format: in vivo
Settings: oral administration at 20 mg/kg
Experimental: The antihypertensive activity of certain compounds of the present invention was determined using the spontaneously hypertensive rat model. The details of this in vivo test are found in Roesler, J. M., et al., J. Pharmacol. Exp. Ther., 236:1-7 (1986).

## N-[(7-Chloro-3,4,5,6-tetrahydro-4-methylthieno[4,3,2-ef][3]benzazepin-2-yl)methyl]2-methylpropanesulfonamide [Example 7]
  arterial blood pressure: dose related reduction in arterial blood pressure

From patent US4981848A, “Alpha-adrenergic receptor antagonists” (SmithKline Beecham Corporation, priority 1989, dated 1991)
